Source: US20240300932A1, “N-PHENYLIMINE DERIVATIVE AND PREPARATION METHOD AND USE THEREOF” (Guizhou University, priority 2023, published 2024)

Legend:
Experiment in all cases: Post-emergence herbicidal activity test (stem and leaf spray, pot culture)
Format in all cases: in vivo
Conditions in all cases: 3 weeks after spraying
Echinochloa crusgalli = tested on: Echinochloa crusgalli
Summary of the method: (§1)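 Pot-grown weeds in loam (pH 7, 1.63% organic matter) were spray-treated on stems and leaves at the 2- to 3-leaf stage with compound in acetone/Tween 80 plus 1.5 liters/ha methyl oleate at 10, 5 or 2.5 g/mu. Fresh-weight growth control was scored 3 weeks later as grades 0–5.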

Setaria viridis = tested on: Setaria viridis
Summary of the method: as §1

Portulaca oleracea = tested on: Portulaca oleracea
Summary of the method: as §1

Abutilon theophrasti = tested on: Abutilon theophrasti
Summary of the method: as §1

Amaranthus retroflexus = tested on: Amaranthus retroflexus
Summary of the method: as §1

Trifoliumre pensL. = tested on: Trifoliumre pensL.
Summary of the method: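 Pot-grown weeds in loam (pH 7), greenhouse at 20–30 °C, sprayed once post-emergence at the 2–3-leaf stage. Compound in acetone with Tween 80 plus methyl oleate oil (1.5 L/ha), applied at 10, 5 and 2.5 g/mu by spray tower. Effect scored 3 weeks after spraying, averaged over three repeats.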

Structure (SMILES) | Post-emergence herbicidal activity, E. crusgalli (grade) (Echinochloa crusgalli; dosage 2.5 g/mu) | Post-emergence herbicidal activity, E. crusgalli (grade) (Echinochloa crusgalli; dosage 5 g/mu) | Post-emergence herbicidal activity, E. crusgalli (grade) (Echinochloa crusgalli; dosage 10 g/mu) | Post-emergence herbicidal activity, S. viridis (grade) (Setaria viridis; dosage 2.5 g/mu) | Post-emergence herbicidal activity, S. viridis (grade) (Setaria viridis; dosage 5 g/mu) | Post-emergence herbicidal activity, S. viridis (grade) (Setaria viridis; dosage 10 g/mu) | Post-emergence herbicidal activity, P. oleracea (grade) (Portulaca oleracea; dosage 2.5 g/mu) | Post-emergence herbicidal activity, P. oleracea (grade) (Portulaca oleracea; dosage 5 g/mu) | Post-emergence herbicidal activity, P. oleracea (grade) (Portulaca oleracea; dosage 10 g/mu) | Post-emergence herbicidal activity, A. theophrasti (grade) (Abutilon theophrasti; dosage 2.5 g/mu) | Post-emergence herbicidal activity, A. theophrasti (grade) (Abutilon theophrasti; dosage 5 g/mu) | Post-emergence herbicidal activity, A. theophrasti (grade) (Abutilon theophrasti; dosage 10 g/mu) | Post-emergence herbicidal activity, A. retroflexus (grade) (Amaranthus retroflexus; dosage 2.5 g/mu) | Post-emergence herbicidal activity, A. retroflexus (grade) (Amaranthus retroflexus; dosage 5 g/mu) | Post-emergence herbicidal activity, A. retroflexus (grade) (Amaranthus retroflexus; dosage 10 g/mu) | Post-emergence herbicidal activity, Trifoliumre pensL. (grade) (Trifoliumre pensL.; dosage 2.5 g/mu) | Post-emergence herbicidal activity, Trifoliumre pensL. (grade) (Trifoliumre pensL.; dosage 5 g/mu) | Post-emergence herbicidal activity, Trifoliumre pensL. (grade) (Trifoliumre pensL.; dosage 10 g/mu)
O=C1C2=C(CCCC2)C(=O)N1c1cc(OCc2nnc(-c3ccccc3F)o2)c(Cl)cc1F [Compound B4] | 1 (Grade 1: the growth control rate is greater than or equal to 5% and less than 20%) | 2 (Grade 2: the growth control rate is greater than or equal to 20% and less than 40%) | 3 (Grade 3: the growth control rate is greater than or equal to 40% and less than 60%) | 2 (Grade 2: the growth control rate is greater than or equal to 20% and less than 40%) | 3 (Grade 3: the growth control rate is greater than or equal to 40% and less than 60%) | 4 (Grade 4: the growth control rate is greater than or equal to 60% and less than 85%) | 4 (Grade 4: the growth control rate is greater than or equal to 60% and less than 85%) | 5 (Grade 5: the growth control rate is greater than or equal to 85%) | 5 (Grade 5: the growth control rate is greater than or equal to 85%) | 4 (Grade 4: the growth control rate is greater than or equal to 60% and less than 85%) | 5 (Grade 5: the growth control rate is greater than or equal to 85%) | 5 (Grade 5: the growth control rate is greater than or equal to 85%) | 5 (Grade 5: the growth control rate is greater than or equal to 85%) | 5 (Grade 5: the growth control rate is greater than or equal to 85%) | 5 (Grade 5: the growth control rate is greater than or equal to 85%) | 5 (Grade 5: the growth control rate is greater than or equal to 85%) | 5 (Grade 5: the growth control rate is greater than or equal to 85%) | 5 (Grade 5: the growth control rate is greater than or equal to 85%)
CC(Br)C(=O)Nc1cc(N2C(=O)C3=C(CCCC3)C2=O)c(F)cc1Cl (stereo not drawn) [Compound D3, 2-bromo-N-(2-chloro-5-(1,3-dioxo-1,3,4,5,6,7-hexahydro-2H-isoindol-2-yl)-4-fluorophenyl)propionamide] | – | – | 3 (Grade 3: the growth control rate is greater than or equal to 40% and less than 60%) | – | – | 3 (Grade 3: the growth control rate is greater than or equal to 40% and less than 60%) | – | – | 5 (Grade 5: the growth control rate is greater than or equal to 85%) | – | – | 5 (Grade 5: the growth control rate is greater than or equal to 85%) | – | – | 5 (Grade 5: the growth control rate is greater than or equal to 85%) | – | – | 5 (Grade 5: the growth control rate is greater than or equal to 85%)
O=C1C2=C(CCCC2)C(=O)N1c1cc(OCc2nc(-c3cc(F)ccc3Cl)no2)c(Cl)cc1F [Compound A21] | 1 (Grade 1: the growth control rate is greater than or equal to 5% and less than 20%) | 2 (Grade 2: the growth control rate is greater than or equal to 20% and less than 40%) | 3 (Grade 3: the growth control rate is greater than or equal to 40% and less than 60%) | 2 (Grade 2: the growth control rate is greater than or equal to 20% and less than 40%) | 3 (Grade 3: the growth control rate is greater than or equal to 40% and less than 60%) | 4 (Grade 4: the growth control rate is greater than or equal to 60% and less than 85%) | 4 (Grade 4: the growth control rate is greater than or equal to 60% and less than 85%) | 5 (Grade 5: the growth control rate is greater than or equal to 85%) | 5 (Grade 5: the growth control rate is greater than or equal to 85%) | 5 (Grade 5: the growth control rate is greater than or equal to 85%) | 5 (Grade 5: the growth control rate is greater than or equal to 85%) | 5 (Grade 5: the growth control rate is greater than or equal to 85%) | 5 (Grade 5: the growth control rate is greater than or equal to 85%) | 5 (Grade 5: the growth control rate is greater than or equal to 85%) | 5 (Grade 5: the growth control rate is greater than or equal to 85%) | 4 (Grade 4: the growth control rate is greater than or equal to 60% and less than 85%) | 5 (Grade 5: the growth control rate is greater than or equal to 85%) | 5 (Grade 5: the growth control rate is greater than or equal to 85%)
O=C1C2=C(CCCC2)C(=O)N1c1cc(OCc2nnc(-c3ccc(Cl)cc3F)o2)c(Cl)cc1F [Compound B19] | 1 (Grade 1: the growth control rate is greater than or equal to 5% and less than 20%) | 2 (Grade 2: the growth control rate is greater than or equal to 20% and less than 40%) | 3 (Grade 3: the growth control rate is greater than or equal to 40% and less than 60%) | 2 (Grade 2: the growth control rate is greater than or equal to 20% and less than 40%) | 3 (Grade 3: the growth control rate is greater than or equal to 40% and less than 60%) | 4 (Grade 4: the growth control rate is greater than or equal to 60% and less than 85%) | 5 (Grade 5: the growth control rate is greater than or equal to 85%) | 5 (Grade 5: the growth control rate is greater than or equal to 85%) | 5 (Grade 5: the growth control rate is greater than or equal to 85%) | 5 (Grade 5: the growth control rate is greater than or equal to 85%) | 5 (Grade 5: the growth control rate is greater than or equal to 85%) | 5 (Grade 5: the growth control rate is greater than or equal to 85%) | 5 (Grade 5: the growth control rate is greater than or equal to 85%) | 5 (Grade 5: the growth control rate is greater than or equal to 85%) | 5 (Grade 5: the growth control rate is greater than or equal to 85%) | 5 (Grade 5: the growth control rate is greater than or equal to 85%) | 5 (Grade 5: the growth control rate is greater than or equal to 85%) | 5 (Grade 5: the growth control rate is greater than or equal to 85%)
CCCCCCCCC(=O)Nc1cc(N2C(=O)C3=C(CCCC3)C2=O)c(F)cc1Cl [Compound D7, N-(2-chloro-5-(1,3-dioxo-1,3,4,5,6,7-hexahydro-2H-isoindole-2-yl)-4-fluorophenyl)nonanamide] | – | – | 3 (Grade 3: the growth control rate is greater than or equal to 40% and less than 60%) | – | – | 4 (Grade 4: the growth control rate is greater than or equal to 60% and less than 85%) | – | – | 5 (Grade 5: the growth control rate is greater than or equal to 85%) | – | – | 5 (Grade 5: the growth control rate is greater than or equal to 85%) | – | – | 5 (Grade 5: the growth control rate is greater than or equal to 85%) | – | – | 5 (Grade 5: the growth control rate is greater than or equal to 85%)
